Square brackets hold non-standard residues; d marks the D form. Peptide text beside a SMILES is read from it. dPhe(4-NH2) = Nc1ccc(C[C@@H](N)C(=O)O)cc1; dPhe(4-Cl) = N[C@H](Cc1ccc(Cl)cc1)C(=O)O; Phe(4-NH2) = Nc1ccc(C[C@H](N)C(=O)O)cc1; d2Nal = N[C@H](Cc1ccc2ccccc2c1)C(=O)O; Lys(iPr) = CC(C)NCCCC[C@H](N)C(=O)O; dCit = NC(=O)NCCC[C@@H](N)C(=O)O; d3Pal = N[C@H](Cc1cccnc1)C(=O)O
Assays:
[1] = tested on: human glioblastoma cell lines U-87MG or U-373MG, Kaposi sarcoma cell lines KSY-1 or KS-SLK, malignant melanoma cell line MV3 or BLM, medulloblastoma cell line …; assay: Proliferation assay on cell cultures (Example 3); assay type: cell-based; settings: for anti-proliferative effects in tumor cells: cell lines of Example 3 treated with the substance; for anti-proliferative effect compared with Cetrorelix only: given additionally as a second GnRH antagonist
Method: A human cell line, such as the well known human glioblastoma cell lines U-87MG or U-373MG (Pinski et al., supra), or a human cell line such as the well known Kaposi sarcoma cell lines KSY-1 or KS-SLK (Parkash et al., 1996, New England Journal of Medicine, 335, 17, 1261-1269), or a human cell line such as the well known human malignant melanoma cell line MV3 or BLM (Goldbrunner, R. H., et al., 1996, Anticancer Research 16 (6B), 3679-87), or a human medulloblastoma cell line such as the well known cell line Daoy or D283 MED (Stockhammer et al., 1995, J. Neurosurgery, 83, 672-681), or human meningeoma cell cultures (Boyle-Wash, E., et al., 1995, Journal of Endocrinology, 145, 155-161), are cultured as previously described for the above-mentioned cell lines and then treated with a concentration of the GnRH agonist Triptorelin®, GnRH antagonist SB-75 (Cetrorelix®) or GnRH antagonist Ramorelix®. […]
In another embodiment, the above-mentioned cell lines are treated as described by Emons, G., et al., 1993, supra, and Irmer, G., 1995, supra, with a concentration of the GnRH peptide antagonist Ac-D-Nal(2)-D-4-ClPhe-D-Pal-Ser-1-MePal-D-IsopropylLys-Leu-IsopropylLys-Pro-D-AlaNH2 (also known as Ant 135-25; the Mepal portion is known as 1-Methyl-3-[3′-pyridyl]-alanine), Teverelix (also known as Antarelix®), Cetrorelix (also known as Cetrotide®), Abarelix (also known as Plenaxis®), D-63153 (also known as Ozarelix®), acyline, azaline B, antide (also known as Iturelix®), Degarelix (FE200486), Ganirelix, Nal-Glu, Orntide (also known as Ornirelix®), Elagolix, or with antagonist peptidomimetic ((2S)-2-[5-[2-(2-azabicyclo[2,2,2]oct-2-yl)-1,1-dimethyl-2-oxoethyl]-2-(3,5-dimethylphenyl)-1H-indol-3-yl]-N-(2-pyridin-4-ylethyl-)propan-1-amine (also known as “IN3”).
In another embodiment, the cell lines used above were each additionally treated with a second GnRH antagonist, namely one of the GnRH antagonists Cetrorelix®, Ant 135-25, IN3, degarelix, Antarelix®, Antide®, and Ramorelix® or alternatively with one of the GnRH antagonists that have been disclosed in U.S. Pat. Nos. 6,939,88, 6,200,957, 5,296,468, 4,851,385, 7,361,633, 7,288,517, WO/2009/106597 or PCT/EP2009/052326, U.S. Pat. Nos. 5,480,969, 5,198,533, or UK Patent GB 2 246782 B, wherein these additional treatment procedures were carried out in a manner similar to those reported in Emons et al., supra, using SB 75 (Cetrorelix®). […]

[2] = tested on: malignant gliomas U-87MG and U-373MG; assay: In vivo study with tumor-implanted nude mice (Example 4); settings: daily dosages
Method: An effect of the treatment of tumor-implanted nude mice (Pinski et al., supra) each with one of the GnRH agonists Buserelin, Triptorelin, Goserelin, and Leuprorelin and each with one of the GnRH antagonists Cetrorelix® (SB-75), Antarelix®, Antide®, and Ramorelix® on the growth of malignant gliomas U-87MG and U-373MG was carried out using daily dosages and controls in nude mice using analysis techniques described for the determination of the efficacy of similar peptides in Pinski et al., supra.

[3] = tested on: small cell lung carcinoma cell lines NCI-H1688, NCI-H1417, NCI-H1672, NCI-H1836, DMS-79, DM-553, DMS-114, SW-1271, NCI-H2227, NCI-HI1963, SHP-77 and H-69 AR; assay: Proliferation assay on small cell lung carcinoma cell lines (Example 3); assay type: cell-based, human; settings: small cell lung carcinoma cell lines treated with the substance
Method: In another embodiment, the small cell lung carcinoma cell lines NCI-H1688, NCI-H1417, NCI-H1672, NCI-H1836, DMS-79, DM-553, DMS-114, SW-1271, NCI-H2227, NCI-HI1963 and SHP-77 in addition to the multidrug-resistant small cell lung carcinoma cell line H-69 AR, are cultured as described above and then treated as described by Emons, G., et al., 1993, supra, and Irmer, G., 1995, supra, with various concentrations of the GnRH agonists (D-Lys6)-GnRH, Lutrelin, Histrelin, Nafarelin, Azagly-Nafarelin, Deslorelin, Cystorelin, Decapeptyl, Gonadorelin, GnRH, D-Lys(6)-GnRH II, Lamprey GnRH II, (D-Lys6)-Lamprey GnRH, (D-Lys6)-Lamprey GnRH II and Lamprey GnRH III.
In another embodiment, the small cell lung carcinoma cell lines NCI-H1688, NCI-H1417, NCI-H1672, NCI-H1836, DMS-79, DM-553, DMS-114, SW-1271, NCI-H2227, NCI-HI1963 and SHP-77 in addition to the multidrug-resistant small cell lung carcinoma cell line H-69 AR, are cultured as described above for the above-mentioned cell lines, and then treated as described by Emons, G., et al., 1993, supra, and Irmer, G., 1995, supra, with a concentration of the GnRH antagonist Cetrorelix (also known as Cetrotide®) or with a GnRH peptide antagonist Ac-D-Nal(2)-D-4-ClPhe-D-Pal-Ser-1-MePal-D-IsopropylLys-Leu-IsopropylLys-Pro-D-AlaNH2 wherein Mepal is 1-Methyl-3-[3′-pyridyl]-alanine or Ant 135-25 (also known as Ac-D-Nal(2)-D-4-Cl-Phe-D-Pal-Ser-1-MePal-D-IsopropylLys-Leu-IsopropylLys-Pro-D-AlaNH2), Teverelix (also known as Antarelix®), Cetrorelix (also known as Cetrotide®), Abarelix (also known as Plenaxis®), D-63153 (also known as Ozarelix®), acyline, azaline B, antide (also known as Iturelix®), Degarelix (FE200486), Ganirelix, Nal-Glu, Orntide (also known as Ornirelix®) or with antagonist peptidomimetic ((2S)-2-[5-[2-(2-azabicyclo[2,2,2]oct-2-yl)-1,1-dimethyl-2-oxoethyl]-2-(3,5-dimethylphenyl)-1H-indol-3-yl]-N-(2-pyridin-4-ylethyl-)propan-1-amine (also known as “IN3”).

[4] = tested on: U-87MG cells; assay type: cell-based, human
Method: U-87MG cells were plated at a density of 1400 cells/cm^2 in […] in standard culture medium. Cells were allowed to attach and start growing for 3 days; the seeding media were then changed to experimental media. Cells were treated for 7 days with ZOLADEX® (10^−10-10^−6 M); medium was changed every two days. Following treatment, cells were collected and counted by hemocytometer. Data obtained from three independent experiments were analyzed according to the Dunnett's test after one-way ANOVA.

[5] = tested on: human melanoma cell line MV3; assay: Proliferation assay using the human malignant melanoma cell line MV3; assay type: cell-based
Method: The human melanoma cell line MV3 was cultured (in long-term culture in RPMI medium (Gibco Co.) with 1% Penstrep and 10% of heat-inactivated fetal calf serum). The proliferation assay was carried out with 6×10^2 cells per well in 96 well plates. First, the cells were removed from the culture flask with a […] and then washed in standard PBS solution. Following centrifugation for 10 minutes (1200 g) the supernatant was discarded and the pellet resuspended in 1 ml medium. An aliquot of 20 μl of the cells was diluted with trypan blue to obtain an 1:20 dilution. Trypan blue stains the necrotic cells. Then counting was performed in a Neubauer counting chamber. Evaluation was performed by daily determination of 4 values starting at day 0 and multiplying the mean values of the cell counts×10^4× dilution factor 20 to obtain the cell count. During the 5 days, the measurement was performed 4× daily in a Biomec spectrophotometer.
The method for determination of tumor cell proliferation is described in Lü, H. Q., et al., 1996, Journal of Cancer Research and Clinical Oncology, 122, 335-342.
The cell line was treated with (Gly-OH10)-LHRH, the LHRH hormone (FIG. 3) (Sigma Chemical Co., No. L8008) or Triptorelin, an LHRH agonist (FIG. 2) (Sigma Chemical Co., No. L9761) or Antide®, a LHRH antagonist (FIG. 1) (Sigma Chemical Co., No. A8802).
Using concentrations of 10^−4 M, 10^−5 M, and 10^−6 M, with the medium serving as a negative control from day 4 on, the following results were obtained: […]

[6] = tested on: Glioblastoma multiforme; assay: Phase I study with Buserelin (Example 5); assay type: in vivo, human; settings: intravenous or intranasal, permanent medication
Method: Patients with non-resectable Glioblastoma multiforme following microsurgical resection and/or after external conventional radiotherapy and/or brachytherapy; or patients with a diffusely, intraaxially growing brain tumor, multifocal tumor spreading or presence of a gliomatosis cerebri, respectively; a tumor volume of more than 65 ml; or a minimal tumor diameter of more than 5 cm, were each treated with the GnRH agonist Buserelin, which was administered intravenously or alternatively by intranasal application as a permanent medication as described by Klijn, J. G. M., et al., 1982, The Lancet, May 19, […].

Compound	anti-proliferative effects in tumor cells [1]	growth of malignant gliomas [2]	anti-proliferative effect compared with Cetrorelix only [1]	anti-proliferative effects in tumor cells [3]	further results
CCNC(=O)[C@@H]1CCCN1C(=O)[C@H](CCCNC(=N)N)NC(=O)[C@H](CC(C)C)NC(=O)[C@@H](CC(C)C)NC(=O)[C@H](Cc1ccc(O)cc1)NC(=O)[C@H](CO)NC(=O)[C@H](Cc1c[nH]c2ccccc12)NC(=O)[C@H](Cc1c[nH]cn1)NC(=O)[C@@H]1CCC(=O)N1 [LEUPRORELIN®]	Significant anti-proliferative effects	Significant growth-inhibiting effects			
CC(=O)N[C@H](Cc1ccc2ccccc2c1)C(=O)N[C@H](Cc1ccc(Cl)cc1)C(=O)N[C@H](Cc1cccnc1)C(=O)N[C@@H](CO)C(=O)N[C@@H](Cc1ccc(O)cc1)C(=O)N[C@H](CCCNC(N)=O)C(=O)N[C@@H](CC(C)C)C(=O)N[C@@H](CCCNC(=N)N)C(=O)N1CCC[C@H]1C(=O)N[C@H](C)C(N)=O [Cetrorelix®] (Ac-[d2Nal][dPhe(4-Cl)][d3Pal]SY[dCit]LRP[dA]-NH2)	Significant anti-proliferative effects	Significant growth-inhibiting effects	significantly stronger anti-proliferative effect	Significant anti-proliferative effects	inhibition of proliferation compared to controls ([4]; 10^−5 M): 30%; decrease of proliferation ([4]; 10^−6 M): 28%
Antarelix®	Significant anti-proliferative effects	Significant growth-inhibiting effects	significantly stronger anti-proliferative effect	Significant anti-proliferative effects	
(Gly-OH10)-LHRH (QHWSYGLRPG; Gonadoliberin-1 C-terminal free acid; UniProt P01148 24-33, looked up) [LHRH hormone, the LHRH hormone (Sigma Chemical Co., No. L8008)]					function of the LHRH hormone on MV3 growth in vitro [5]: positive growth factor
CCNC(=O)[C@@H]1CCCN1C(=O)[C@H](CCCNC(=N)N)NC(=O)[C@H](CC(C)C)NC(=O)[C@@H](COC(C)(C)C)NC(=O)[C@H](Cc1ccc(O)cc1)NC(=O)[C@H](CO)NC(=O)[C@H](Cc1c[nH]c2ccccc12)NC(=O)[C@H](Cc1cnc[nH]1)NC(=O)[C@@H]1CCC(=O)N1 [Buserelin]	Significant anti-proliferative effects	Significant growth-inhibiting effects			recidivation-free survival [6]: longer than that described following Tamoxifen treatment of glioma
Antide®	Significant anti-proliferative effects	Significant growth-inhibiting effects	significantly stronger anti-proliferative effect	Significant anti-proliferative effects	inhibition of proliferation ([5]; 10^−4 M, from day 4 on): 15%; inhibition of proliferation ([5]; 10^−5 M, from day 4 on): 35%; inhibition of proliferation ([5]; 10^−6 M): no inhibition; stimulation of the growth ([5]; 10^−6 M): 40%
CC(=O)Nc1ccc(C[C@H](NC(=O)[C@H](CO)NC(=O)[C@@H](Cc2cccnc2)NC(=O)[C@@H](Cc2ccc(Cl)cc2)NC(=O)[C@@H](Cc2ccc3ccccc3c2)NC(C)=O)C(=O)N[C@H](Cc2ccc(NC(C)=O)cc2)C(=O)N[C@@H](CC(C)C)C(=O)N[C@@H](CCCCNC(C)C)C(=O)N2CCC[C@H]2C(=O)N[C@H](C)C(N)=O)cc1 [acyline] (Ac-[d2Nal][dPhe(4-Cl)][d3Pal]S[Phe(4-NH2)](Ac)[dPhe(4-NH2)](Ac)L[Lys(iPr)]P[dA]-NH2)	Significant anti-proliferative effects			Significant anti-proliferative effects	
